Laboratory results reported in patent US11872230B2, “Method of treating a methionine-dependent cancer” (Agency for Science, Technology and Research, priority 2018, dated 2024).
Entries after “also recorded” stand apart in the source; their conditions may differ. Where a SMILES comes first, the peptide text is derived from it. The star is where a group is joined. Cbz = O=C(OCc1ccccc1)*

Columns and labels:
TS cells (lung TICs) [1] = test: Intraperitoneal administration to NSG mice subcutaneously implanted with lung TICs; type: in vivo; conditions: cisplatin 4 mg/kg i.p., three days, 6 weeks
Description: (§1) 5×10^5 single cells were mixed in a 1:1 mixture of serum free DMEM/F12 and Matrigel (BD) and injected subcutaneously into the flanks of 4-6 week old male and female NOD.Cg-Prkdc^scid Il2rg^tm1wjl SzJ (Jackson Laboratories). About 6 weeks later, or when tumor sizes exceed 2 cm in length, mice were sacrificed and tumors harvested for analysis. All animal experiments were approved by the Agency for Science Technology and Research Singapore—Biological Resource Centre. Mice were randomized by sex.
Since FIDAS5 appeared to more specifically disrupt the methionine cycle and inhibit cellular methylation activities compared to D9, it was sought to test whether its systemic delivery could impact the tumorigenic potential of TS cells. These highly tumorigenic cells were first subcutaneously implanted into NSG mice and FIDAS5 (40 mg/kg) or corn oil carrier was immediately administered via intraperitoneal injection for three consecutive days. After 6 weeks, mice transiently treated with FIDAS5 produced tumors that were much smaller than carrier-treated controls. […] To exclude the possibility of general cytotoxicity associated with the inhibitor on TS cells, TS cell-implanted NSG mice were treated with cisplatin (4 mg/kg), a frontline chemotherapeutic agent that broadly target bulk cancer cells in NSCLC tumors, in the same manner (FIG. 5i). […]

[2] = tested on: histone methylation in TS cells; test: Western blot of methylated histones in TS cells; type: cell-based, human
Method: (§2) 1.5×10^6 cells were lysed in Llaemli-SDS buffer and then sonicated. Total protein concentration was measured by Bradford assay. Total cell lysates were separated by SDS-PAGE and transferred onto nitrocellulose, followed by blocking in 5% (v/v) milk in Tris-buffered saline in Tween 20, probing with the indicated antibodies and visualized by chemiluminescence (Roche). Primary antibodies used were anti-β-Actin (sc-47778), anti-GAPDH (sc-32233) from Santa Cruz: anti-GLDC (ab97625), anti-H3 (ab1791), anti-H3 (dimethylK36) (ab9049), anti-MAT2A (ab77471), anti-MTR (ab9209), anti-H3 (trimethylK79) (ab2621), anti-MTHFR (ab125707), anti-MTAP (ab ab55517) from Abcam; anti-H3(trimethyl K4) (39159), anti-H3(trimethyl K27)(39155), anti-H3(trimethylK36)(61101) and anti-H3(trimethylK9)(39765) from Active Motif; anti-β-catenin (BD610154) from BD Biosciences; anti-SHMT2 (HPA020549) and anti-SAHH (WH0000191M8) from Sigma; anti-Symmetric Di-Methyl Arginine Motif (13222) from CST.
(§3) To evaluate the methionine cycle as a therapeutic target in lung TICs, small molecule inhibitors that target enzymes within this pathway were employed, mimicking the effects of short-term methionine starvation (FIG. 5a). two inhibitors known to perturb methionine cycle activity and cellular methylation levels: 1) MAT2A inhibitor, FIDAS5; and 2) SAHH inhibitor, D9, which is an analog of DZNep. In a manner similar to amino acid starvation studies, TS cells were exposed transiently to the compounds for 48 h in culture and were immediately used for downstream tumorigenesis assays.

[3] = tested on: methylated histones in TS cells; test: Protein turnover experiment (cycloheximide) of methylated histones in TS cells; type: cell-based, human; conditions: MG132 10 μM with 20 μg/ml cycloheximide
Method: as §2
5×10^5 cells were treated with 20 μg/ml of cycloheximide (Sigma) and harvested for immunoblotting at indicated time points thereafter.

TS cells (lung TICs) [4] = test: Soft agar colony formation of pre-treated TS cells; type: cell-based, human
Method: 2.5 ml lower layer of 0.7% agar in complete DMEM/F12 with 10% fetal bovine serum was placed in 3 wells of a 6 well dish, and permitted to solidify. 2×10^4 Cells (for 3 wells) were then suspended in a 2 ml layer of 0.35% agar in complete DMEM/F12 with 10% fetal bovine serum and layered on top of the bottom layer. Colonies were stained with crystal violet and counted after approximately 2 months.
as §3

TS cells (lung TICs) [5] = test: Tumor formation in NSG mice after transplantation of pre-treated TS cells; type: in vivo
Description: as §1, §3

[6] = tested on: histone methylation in GLDC KD cells; test: Western blot of methylated histones in GLDC KD cells with metabolite supplementation; type: cell-based, human; conditions: SAM 500 μM 48 h, formate 0.5 mM, methyl-THF 20 μM or adenosine 200 μM
Method: (§4) 1.5×10^6 cells were lysed in Llaemli-SDS buffer and then sonicated. Total protein concentration was measured by Bradford assay. Total cell lysates were separated by SDS-PAGE and transferred onto nitrocellulose, followed by blocking in 5% (v/v) milk in Tris-buffered saline in Tween 20, probing with the indicated antibodies and visualized by chemiluminescence (Roche).

GLDC KD cells = test: Tumor mass in NSG mice after transplantation of SAM supplemented GLDC KD cells; type: in vivo; conditions: GLDC KD cells supplemented with SAM for 48 hours before xenografting
Description: as §1

[7] = tested on: MTHFR abundance in GLDC KD cells; test: Western blot of MTHFR in SAM supplemented GLDC KD cells; type: cell-based, human
Method: as §2

[8] = tested on: ATP levels in knockdown TS cells; test: Steady-state ATP levels (CellTiter-Glo) in GLDC/SHMT2 knockdown TS cells; type: cell-based, human; conditions: GLDC (or SHMT2) knockdown cells; formate 0.5 mM or adenosine 200 μM
Method: (§5) Cells were seeded into 96-well plates at a density of 1,000 cells/well at 10 replicate wells per condition. Cells were then left to equilibrate at 37° C. for 3 h. ATP was then quantified using the CellTiter-GLo reagent (Promega). 5 biological replicates were used.

ATP levels in Adh cells = test: Steady-state ATP levels (CellTiter-Glo) in Adh cells; type: cell-based, human; conditions: formate 0.5 mM
Method: as §5

[9] = tested on: histone methylation in MTHFR overexpressing+GLDC KD cells; test: Western blot of methylated histones in MTHFR overexpressing+GLDC KD cells; type: cell-based, human; conditions: formate 0.5 mM
Method: as §4

[10] = methionine-starved TS cells (48 h) supplemented with SAM 500 μM or homocysteine 250 μM
[11] = TS cells, 500 μM SAM in the presence of FIDAS5

How did the tumor growth (TS cells (lung TICs) [1]) turn out when `N.N.[Cl][Pt][Cl]` [Cisplatin, cis-Diammineplatinum(II) dichloride] was run?
The tumor growth was “unable to halt tumor growth”.

Which histone methylation [2, 10] does the source give for `N[C@@H](CCS)C(=O)O` [Homocysteine, homocysteine] here?
The histone methylation was “failed to rescue”.

`CC(C)C[C@@H](C=O)NC(=O)[C@H](CC(C)C)NC(=O)[C@H](CC(C)C)NC(=O)OCc1ccccc1` [MG132] (Cbz-Leu-Leu-Leu-aldehyde) was tested. Which “high turnover of methylated histones” value [3] did it give?
Its value is “rescued”.

What does the source list for `C[S+](CC[C@H](N)C(=O)O)C[C@H]1O[C@@H](n2cnc3c(N)ncnc32)[C@H](O)[C@@H]1O` (stereo partly drawn) [SAM, S-adenosyl methionine]?
histone methylation [2, 11]: rescued, to a large extent; histone methylation [2, 10]: restored; colony-formation capability (TS cells (lung TICs) [4]; [11]): rescued, to a large extent; colony-forming capability (TS cells (lung TICs) [4]; methionine starvation conditions, SAM 500 μM supplemented): rescued; tumor-formation capability (TS cells (lung TICs) [5]; TS cells, 500 μM SAM in the presence of FIDAS5, transplanted into NSG mice): rescued, to a large extent; tumor-forming capability (TS cells (lung TICs) [5]; methionine starvation conditions, SAM 500 μM supplemented, NSG mice): rescued; histone methylation [6]: reestablishment of histone methylation; tumorigenic potential (GLDC KD cells): incomplete rescue; MTHFR abundance [7]: recovery of MTHFR abundance

With `Nc1ncnc2c1ncn2[C@@H]1O[C@H](CO)[C@@H](O)[C@H]1O` [adenosine, Adenosine] as the compound, how does the histone methylation [6] read?
The histone methylation was “did not rescue”.

What about the “steady state ATP levels” value [8] of the same compound?
Its value is “rescued ATP levels”.

For `O=C[O-].[Na+]` [formate, Sodium formate], which histone methylation [6] is on record?
The histone methylation was “did not rescue”.

And the “steady state ATP levels” value [8]?
The value was “could be rescued; also recorded: rescued ATP levels”.

And the ATP levels (ATP levels in Adh cells)?
The ATP levels was “could not rescue”.

What about the histone methylation [9] of the same compound?
Its histone methylation is “fully rescued”.
